Data from patent US9248162B2, “Factor H for treatment of rheumatoid arthritis” (Baxter International Inc., priority 2013, dated 2016).
Where “and” joins values, the source holds several entries; their conditions need not be identical. Identical values can stand only once.

Key:
[1] = tested on: collagen antibody-induced arthritis; experiment: Mouse CAIA: hind paw / footpad volume (swelling, disease burden); type: in vivo, Balb C mice; set-up: Mean Disease Burden / Total Disease Burden (AUC) / Hind Limb Volume, Mean Diff. / Total Disease, Mean Diff.: unit not given here
Method: (§1) Balb C mice (n=10 per cohort) were used to determine the efficacy of Factor H (FH) during […]. The mice were treated with ArthritoMAb (anti-collagen) antibody cocktail (2 mg, i.v.) on day 1, followed 7 days later with an injection of LPS (50 μg, i.p.). On day 8, hind paw volumes were measured for each animal and distributed to various treatment groups.
(§2) Factor H was formulated in 20 mM Citrate, 150 mM NaCl, pH=6. […] Ethanercept was formulated as Enbrel™ in saline. Vehicle was formulated in 20 mM Citrate, 150 mM NaCl, pH=6. […] The dosing volume for Factor H and BX12 was 25 mL/kg (0.500 mL/20 g mouse) and adjusted accordingly for body weight.
(§3) Dosing with the different agents was started on day 8 as described in Table 3.
(§4) The age at start date was 7 to 9 weeks. Body weights were measured bi-weekly to the endpoint (Table 4). At the endpoint, tissue samples were processed for histology and submitted to a pathologist for independent analysis. Sampling 1 was performed at the endpoint. The hind limbs were preserved in 10% formalin. Sampling 2 was performed at the endpoint for group 4 animals. Blood was collected by terminal cardiac puncture. The blood was processed for anti-coagulant. The kidneys were additionally preserved in formalin and followed with 70% EtOH. Samples were scored for inflammation, pannus (granulation tissue), cartilage damage, bone resorption and exostosis (Table 5).

[2] = tested on: collagen antibody-induced arthritis; experiment: Mouse CAIA: clinical score; type: in vivo, Balb C mice
Method: The mice were treated with ArthritoMAb (anti-collagen) antibody cocktail (2 mg, i.v.) on day 1, followed 7 days later with an injection of LPS (50 μg, i.p.). On day 8, hind paw volumes were measured for each animal and distributed to various treatment groups.
as §2, §3

[3] = tested on: collagen antibody-induced arthritis; experiment: Mouse CAIA: ankle histology scores (H & E); type: in vivo, Balb C mice; set-up: key to Score From H & E: Inflammation: 0: normal; 1: minimal infiltration of inflammatory cells in periarticular tissue; 2: mild infiltration; 3: moderate infiltration with moderate edema; 4: marked infiltration with marked edema; 5: severe infiltration with severe edema; key to Exostosis, Summary (significance) / Composite, Summary (significance) / Pannus, Summary (significance) / Cartilage, Summary (significance) / Inflammation, Summary (significance): ns: = not significant; *: = P < 0.05; **: = P < 0.01; ***: = P < 0.001; Composite Biohistopathology Score, group value / Composite Biohistopathology Score: scale not given here
Method: as §1, §3
as §4, with “Hind paw volumes were measured on day 8, 11, 12, 13, 15, 19 and 22 (endpoint). The age” for “The age”

[4] = Mouse CAIA: body weight and tolerability; type: in vivo, Balb C mice; conditions: mouse, in vivo
Method: as §1, §3
as §4, with “Hind paw volumes were measured on day 8, 11, 12, 13, 15, 19 and 22 (endpoint). The age” for “The age”

[5] = tested on: collagen antibody-induced arthritis; experiment: Mouse CAIA: ankle histology scores (H & E); type: in vivo, Balb C mice; set-up: key: 0: normal; 1: minimal infiltration of pannus in cartilage and subchondral bone; 2: mild infiltration; 3: moderate infiltration; 4: marked infiltration; 5: severe infiltration; conditions: individual animal, score 0-5, endpoint day 22, listed as Group 2
Method: as §1, §3
as §4, with “Hind paw volumes were measured on day 8, 11, 12, 13, 15, 19 and 22 (endpoint). The age” for “The age”

[6] = tested on: collagen antibody-induced arthritis; experiment: Mouse CAIA: ankle histology scores (H & E); type: in vivo, Balb C mice; set-up: key: 0: normal; 1: minimal infiltration of inflammatory cells in periarticular tissue; 2: mild infiltration; 3: moderate infiltration with moderate edema; 4: marked infiltration with marked edema; 5: severe infiltration with severe edema; conditions: individual animal
Method: as §1, §3
as §4, with “Hind paw volumes were measured on day 8, 11, 12, 13, 15, 19 and 22 (endpoint). The age” for “The age”

[7] = tested on: kidney allografts in pre-sensitized recipients; experiment: Kidney allograft survival in pre-sensitized recipients, RAPA / FK506 / CFH (Example 2); type: in vivo, C57BL/6 (B6) mice
Text: Male C3H (H-2k) and C57BL/6 (B6, H-2b) mice (25-30 g) were used to determine the efficacy of Rapamycin (RAPA) in combination with Factor H (FH) during transplant rejection. C3H mice served as skin graft and kidney donors for pre-sensitization and kidney transplantation. Male C57BL/c (B6) mice were used as recipients. The B6 recipients were pre-sensitized by transplantation of the donor skin grafts, and were subsequently transplanted with kidney allografts between 15 and 20 days after the skin transplantation. […]
Mice were monitored daily for signs of rejection and were euthanized at the end point of the experiment, which was defined as when transplants developed functional deterioration due to severe rejection or on POD60 and POD100. Renal graft function was monitored by plasma creatinine (Cr) blood urea nitrogen (BUN) and hematocrit (Hct) levels by an I-Stat potable analyzer (Abaxis). Circulating donor specific antibodies (DSAs) were determined prior to kidney transplantation and at the endpoint of study by flow cytometry.

[8] = Vehicle vs agent, Dunnett's Multiple Comparison Test
[9] = Vehicle vs agent, Dunn's Multiple Comparison Test
[10] = ankle, group mean ± spread, 10 animals, score 0-5
[11] = histopathology score, graded 1-5, hind limbs at endpoint, group value

SMILES: C[C@@H]1C[C@H]2[C@@H]3CCC4=CC(=O)C=C[C@]4(C)[C@@]3(F)[C@@H](O)C[C@]2(C)[C@@]1(O)C(=O)CO [Dexamethasone]
- Hind Limb Volume, Summary (significance) [1, 8]: *** (= P < 0.001)
- Total Disease, Summary (significance) [1, 8]: *** (= P < 0.001)
- Hind paw volume ([1]; day 8 of study, group mean, n 10): 0.35 mL
- Hind paw volume ([1]; day 8 of study, individual animal): 0.42 mL and 0.39 mL (2×) and 0.37 mL and 0.35 mL and 0.34 mL and 0.33 mL and 0.31 mL (2×) and 0.3 mL
- Hind paw volume ([1]; day 11 of study, group mean, n 10): 0.32 mL
- Hind paw volume ([1]; day 11 of study, individual animal): 0.38 mL and 0.34 mL and 0.32 mL (3×) and 0.3 mL (3×) and 0.35 mL and 0.31 mL
- Hind paw volume ([1]; day 12 of study, group mean, n 10): 0.34 mL
- Hind paw volume ([1]; day 12 of study, individual animal): 0.34 mL (4×) and 0.28 mL and 0.35 mL and 0.32 mL and 0.31 mL and 0.39 mL and 0.37 mL
- Hind paw volume ([1]; day 13 of study, group mean, n 10): 0.33 mL
- Hind paw volume ([1]; day 13 of study, individual animal): 0.31 mL (2×) and 0.3 mL (2×) and 0.36 mL and 0.35 mL (2×) and 0.33 mL and 0.38 mL and 0.29 mL
- Hind paw volume ([1]; day 16 of study, group mean, n 10): 0.31 mL
- Hind paw volume ([1]; day 16 of study, individual animal): 0.37 mL and 0.33 mL and 0.29 mL (3×) and 0.38 mL and 0.26 mL and 0.3 mL (2×) and 0.27 mL
- Hind paw volume ([1]; day 19 of study, group mean, n 10): 0.34 mL
- Hind paw volume ([1]; day 19 of study, individual animal): 0.35 mL (4×) and 0.28 mL and 0.3 mL (2×) and 0.38 mL and 0.37 mL and 0.32 mL
- Hind paw volume ([1]; day 22 of study, group mean, n 10): 0.33 mL
- Hind paw volume ([1]; day 22 of study, individual animal): 0.39 mL and 0.42 mL and 0.3 mL and 0.32 mL and 0.29 mL (2×) and 0.35 mL (2×) and 0.31 mL and 0.26 mL
- % Disease Suppression ([1]; days 8-22, individual animal): 95.1%
- Total Disease Burden (AUC) ([1]; days 8-22, individual animal): −0.56 and −0.05
- Clinical Score, Summary (significance) [2, 9]: *** (= P < 0.001)
- Clinical Score, Day of Study 8, Mean ([2]; group mean, n=10, day 8 (start of dosing)): 4.00
- Clinical Score, Day of Study 11, Mean ([2]; group mean, n=10, day 11): 0.10
- Clinical Score, Day of Study 12, Mean ([2]; group mean, n=10, day 12): 5.70
- Clinical Score, Day of Study 13, Mean ([2]; group mean, n=10, day 13): 6.00
- Clinical Score, Day of Study 16, Mean ([2]; group mean, n=10, day 16 (Jul. 1, 2011)): 0.00
- Clinical Score, Day of Study 19, Mean ([2]; group mean, n=10, day 19): 0.00
- Clinical Score, Day of Study 22, Mean ([2]; group mean, n=10, day 22 (endpoint)): 0.00
- Clinical Score, Day of Study 8 ([2]; individual animal, score 0-60, day 8 (start of dosing)): 5 (2×) and 10 (3×) and 0 (5×)
- Clinical Score, Day of Study 11 ([2]; individual animal, score 0-60, day 11): 0 (9×) and 1
- Clinical Score, Day of Study 12 ([2]; individual animal, score 0-60, day 12): 0 (3×) and 10 (4×) and 5 (2×) and 7
- Clinical Score, Day of Study 13 ([2]; individual animal, score 0-60, day 13): 0 (4×) and 10 (6×)
- Clinical Score, Day of Study 16 ([2]; individual animal, score 0-60, day 16 (Jul. 1, 2011)): 0
- Clinical Score, Day of Study 19 ([2]; individual animal, score 0-60, day 19): 0
- Clinical Score, Day of Study 22 ([2]; individual animal, score 0-60, day 22 (endpoint)): 0
- Cartilage, Summary (significance) [3, 9]: ns
- Composite, Summary (significance) [3, 9]: * (= P < 0.05)
- Exostosis, Summary (significance) [3, 9]: ** (= P < 0.01)
- Inflammation, Summary (significance) [3, 9]: ** (= P < 0.01)
- Pannus, Summary (significance) [3, 9]: ns
- Composite Biohistopathology Score, group value ([3]; ankle, group mean ± spread, 10 animals): 0.2 ± 0.1
- Score From H & E: Bone Resorption, group value [3, 10]: 0.0 ± 0.0
- Score From H & E: Cartilage Damage, group value [3, 10]: 0.0 ± 0.0
- Score From H & E: Inflammation, group value [3, 10]: 0.1 ± 0.1
- Score From H & E: Pannus, group value [3, 10]: 0.1 ± 0.1
- Score From H & E: Periosteal/Exostotic Changes, group value [3, 10]: 0.0 ± 0.0
- Composite Biohistopathology Score ([3]; ankle, individual animal, endpoint day 22, listed as Group 2): 1 (2×) and 0 (8×)
- Score From H & E: Inflammation ([3]; ankle, individual animal, score 0-5, endpoint day 22, listed as Group 2): 0 (9×) and 1
- Mean Body Weigh at Nadir [4]: −7.7%
- Score From H & E: Pannus [5]: 1
- Score From H & E: Bone Resorption ([6]; score 0-5, endpoint day 22): 0
- Score From H & E: Cartilage Damage ([6]; score 0-5, endpoint day 22): 0
- Score From H & E: Periosteal/Exostotic Changes ([6]; score 0-5, endpoint day 22): 0
- Score From H & E: Pannus ([6]; score 0-5, endpoint day 22, listed as Group 2): 0

SMILES: CO[C@H]1C[C@@H]2CC[C@@H](C)[C@@](O)(O2)C(=O)C(=O)N2CCCC[C@H]2C(=O)O[C@H]([C@H](C)C[C@@H]2CC[C@@H](O)[C@H](OC)C2)CC(=O)[C@H](C)/C=C(\C)[C@@H](O)[C@@H](OC)C(=O)[C@H](C)C[C@H](C)/C=C/C=C/C=C/1C [RAPA, Rapamycin]
- Survival ([7]; individual graft survival, one value per graft): 8 days (2×) and 37 days and 10 days and 11 days and 12 days and 22 days and 14 days and 16 days and 20 days
- MST ([7]; mean survival time of cohort, untreated controls 8 days): 14 days

SMILES: C[C@@H]1C[C@H]2[C@@H]3CCC4=CC(=O)C=C[C@]4(C)[C@@]3(F)[C@@H](O)C[C@]2(C)[C@@]1(O)C(=O)CO [Dex.]
- Composite Score ([3]; histopathology composite, hind limbs at endpoint, group value): 0.2 ± 0.1
- Bone Resorption [3, 11]: 0 ± 0^ns
- Cartilage Damage [3, 11]: 0 ± 0^ns
- Exostosis [3, 11]: 0 ± 0
- Inflammation [3, 11]: 0.1 ± 0.1
- Pannus [3, 11]: 0.1 ± 0.1^ns
